Measured values reported in paper PMC12251161, “Crucian Carp-Derived ACE-Inhibitory Peptides with In Vivo Antihypertensive Activity: Insights into Bioactivity, Mechanism, and Safety” (Molecules, 2025).
Where a SMILES comes first, the peptide text is derived from it. [ ]: non-standard residue; d: D form. Hyp = O=C(O)[C@@H]1C[C@@H](O)CN1

How the values were obtained:
[1] = target: T1, ACE (from rabbit lung, EC 3.4.15.1) (Oryctolagus cuniculus, UniProt P12822); assay: ACE-inhibitory activity assay (FAPGG substrate, spectrophotometric); type: biochemical; conditions: synthetic peptides; FAPGG 1 mmol/L, 80 mM HEPES, 0.3 M NaCl, pH 8.3, 37 °C; triplicate, sigmoidal dose–response fit; read-out: IC₅₀ ACE inhibition
T1 construct: ACE (from rabbit lung, EC 3.4.15.1); purchased Sigma-Aldrich Co. (St. Louis, MO, USA); host or cells: rabbit lung tissue
T1 sequence (P12822 34-1310): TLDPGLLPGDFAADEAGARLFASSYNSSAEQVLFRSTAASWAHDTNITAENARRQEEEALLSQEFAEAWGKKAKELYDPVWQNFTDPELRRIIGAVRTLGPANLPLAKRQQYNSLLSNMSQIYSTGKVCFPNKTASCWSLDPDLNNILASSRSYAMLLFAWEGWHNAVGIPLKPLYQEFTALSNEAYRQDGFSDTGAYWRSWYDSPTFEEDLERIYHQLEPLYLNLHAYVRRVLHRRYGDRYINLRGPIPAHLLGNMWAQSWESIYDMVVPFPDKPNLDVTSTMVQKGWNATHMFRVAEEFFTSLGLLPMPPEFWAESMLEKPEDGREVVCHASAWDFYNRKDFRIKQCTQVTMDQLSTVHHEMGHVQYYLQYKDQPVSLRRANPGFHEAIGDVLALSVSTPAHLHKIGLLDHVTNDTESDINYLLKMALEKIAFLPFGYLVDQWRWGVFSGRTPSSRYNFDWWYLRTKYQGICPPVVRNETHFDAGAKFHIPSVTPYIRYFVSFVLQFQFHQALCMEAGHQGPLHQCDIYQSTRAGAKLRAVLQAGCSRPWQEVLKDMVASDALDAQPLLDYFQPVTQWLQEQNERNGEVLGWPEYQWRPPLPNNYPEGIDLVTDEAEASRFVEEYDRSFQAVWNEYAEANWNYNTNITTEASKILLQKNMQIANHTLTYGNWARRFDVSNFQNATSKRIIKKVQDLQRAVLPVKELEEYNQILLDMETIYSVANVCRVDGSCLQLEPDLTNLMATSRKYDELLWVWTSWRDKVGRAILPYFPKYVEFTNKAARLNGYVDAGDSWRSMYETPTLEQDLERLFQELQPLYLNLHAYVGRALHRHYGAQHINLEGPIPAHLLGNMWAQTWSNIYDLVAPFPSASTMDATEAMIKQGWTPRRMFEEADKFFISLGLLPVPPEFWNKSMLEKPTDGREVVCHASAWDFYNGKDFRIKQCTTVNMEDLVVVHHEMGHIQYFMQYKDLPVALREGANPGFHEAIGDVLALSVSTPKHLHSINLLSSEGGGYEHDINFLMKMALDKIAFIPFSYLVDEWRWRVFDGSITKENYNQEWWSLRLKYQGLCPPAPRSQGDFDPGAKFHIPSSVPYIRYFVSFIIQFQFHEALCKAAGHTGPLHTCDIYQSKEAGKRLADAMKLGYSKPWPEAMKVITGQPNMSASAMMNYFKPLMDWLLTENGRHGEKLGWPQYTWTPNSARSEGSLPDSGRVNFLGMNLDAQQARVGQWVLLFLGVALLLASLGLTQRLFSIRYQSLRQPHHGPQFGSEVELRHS
Procedure: All other chemicals were of analytical grade.
All assays were conducted in triplicate.

nitric oxide (NO) = assay: Nitric oxide level in SHRs (assay kit); type: in vivo, spontaneously hypertensive rats (SHRs); conditions: oral, vs model group
Excerpt: (§1) Formic acid (≥99%, LC-MS grade), 4-(2-hydroxyethyl) piperazine-1-ethanesulfonic acid (HEPES, ≥99%, ACS grade), ACE (from rabbit lung, EC 3.4.15.1), acetonitrile (ACN, ≥99%, LC-MS grade), and N-[3-(2-Furyl) acryloyl]-Phe-Gly-Gly (FAPGG, ≥99%, ACS grade) were obtained from Sigma-Aldrich Co. (St. Louis, MO, USA). An enzyme-linked immunosorbent assay (ELISA) kit for AngII (catalog no. D731188-0048) was purchased from Sangon Biotech (Shanghai, China). ELISA kits for endothelial nitric oxide synthase (eNOS, catalog no. JL21190-48T) and BK (catalog no. JL21045-48T) were obtained from JONLN Biotechnology Co., Ltd. (Shanghai, China). Nitric Oxide (NO) assay kit (catalog no. A013-2-1) was purchased from Nanjing Jiancheng Bioengineering Institute (Nanjing, Jiangsu, China). All other chemicals were of analytical grade. […]
(§2) Systolic blood pressure (SBP) was measured using a non-invasive blood pressure monitoring system (BP-2000, Softron Co., Tokyo, Japan) at baseline (0 h) and at 2, 4, 6, 8, and 12 h after administration to evaluate the antihypertensive effects of the test peptides, following the method described by Kurita. The levels of AngII, eNOS, and BK were measured using commercial ELISA kits, while NO levels were determined using the Microwell plate method with a specialized assay kit.

[2] = tested on: endothelial nitric oxide synthase (eNOS); assay: Endothelial nitric oxide synthase level in SHRs (ELISA); type: in vivo, spontaneously hypertensive rats (SHRs); conditions: oral, vs model group
Excerpt: as §1, §2

angiotensin II = assay: Angiotensin II level in SHRs (ELISA); type: in vivo, spontaneously hypertensive rats (SHRs); conditions: captopril 12 mg/kg oral, n = 6
Excerpt: as §1, §2

BALB/c mice [3] = assay: 90-day oral safety: serum biochemical parameters; type: in vivo; conditions: 50 mg/kg/day oral, 90 days
Procedure: (§3) A total of 40 healthy 7-week-old BALB/c mice (20 males and 20 non-pregnant females), with body weights within ±15% of the cohort mean, were obtained from Yangzhou University. All animals underwent a 7-day acclimation period under specific pathogen-free conditions prior to the experiment. Mice were housed under standard laboratory conditions: ambient temperature of 20–26 °C, relative humidity of 40–70%, and a 12 h light/dark cycle. General appearance, behavior, food intake, and body weight were monitored daily throughout the study. To evaluate the potential subchronic toxicity of the synthetic GA-Hyp-GAR peptide, a 90-day oral administration study was conducted. Mice were randomly divided into two groups (n = 10 males and 10 females per group): a normal group and a GA-Hyp-GAR-treated group receiving 50 mg/kg/day via daily intragastric gavage. The normal group received an equivalent volume of ultrapure water via the same route. After 90 consecutive days of treatment, all animals were anesthetized and euthanized 24 h after the final dose. Blood samples were collected via cardiac puncture for hematological and serum biochemical analyses, performed using a Hitachi 3500 fully automated biochemical analyzer (Hitachi High-Tech Science Corp., Tokyo, Japan). Major organs—including the heart, liver, spleen, lungs, and kidneys—were excised, blotted dry, and weighed. Organ coefficients (organ weight/body weight × 100%) were calculated to assess potential physiological or pathological effects associated with long-term GA-Hyp-GAR exposure. Tissues were fixed in 4% paraformaldehyde, embedded in paraffin, sectioned, and stained with hematoxylin and eosin for histopathological evaluation. All animal experiments were conducted in accordance with the ethical guidelines of the Animal Ethics Committee of Nanjing Agricultural University, which approved the study protocol (Protocol No. NJAU-20250120-35).

BALB/c mice [4] = assay: 90-day oral safety: mortality, clinical signs, body weight; type: in vivo; conditions: 50 mg/kg/day oral, 90 days, male and female
Procedure: as §3, with “Blood samples were collected via cardiac puncture for hematological and serum biochemical analyses, performed using a Hitachi 3500 fully automated biochemical analyzer (Hitachi High-Tech Science Corp., Tokyo, Japan). Major organs—including the heart, liver, spleen, lungs, and kidneys—were excised, blotted dry, and weighed.” left out, “Tissues were fixed in 4% paraformaldehyde, embedded in paraffin, sectioned, and stained with hematoxylin and eosin for histopathological evaluation. All animal experiments were conducted in accordance with the ethical guidelines of the Animal Ethics Committee of Nanjing Agricultural University, which approved the study protocol (Protocol No. NJAU-20250120-35).” left out

BALB/c mice [5] = assay: 90-day oral safety: histopathology (H&E); type: in vivo; conditions: 50 mg/kg/day oral, 90 days, liver, kidneys, spleen, lungs, heart
Procedure: as §3, with “Blood samples were collected via cardiac puncture for hematological and serum biochemical analyses, performed using a Hitachi 3500 fully automated biochemical analyzer (Hitachi High-Tech Science Corp., Tokyo, Japan). Major organs—including the heart, liver, spleen, lungs, and kidneys—were excised, blotted dry, and weighed.” left out, “Tissues were fixed in 4% paraformaldehyde, embedded in paraffin, sectioned, and stained with hematoxylin and eosin for histopathological evaluation. All animal experiments were conducted in accordance with the ethical guidelines of the Animal Ethics Committee of Nanjing Agricultural University, which approved the study protocol (Protocol No. NJAU-20250120-35).” left out

BALB/c mice [6] = assay: 90-day oral safety: organ coefficients; type: in vivo; conditions: 50 mg/kg/day oral, 90 days; liver, kidneys, spleen, lungs, heart
Procedure: as §3, with “Blood samples were collected via cardiac puncture for hematological and serum biochemical analyses, performed using a Hitachi 3500 fully automated biochemical analyzer (Hitachi High-Tech Science Corp., Tokyo, Japan). Major organs—including the heart, liver, spleen, lungs, and kidneys—were excised, blotted dry, and weighed.” left out, “Tissues were fixed in 4% paraformaldehyde, embedded in paraffin, sectioned, and stained with hematoxylin and eosin for histopathological evaluation. All animal experiments were conducted in accordance with the ethical guidelines of the Animal Ethics Committee of Nanjing Agricultural University, which approved the study protocol (Protocol No. NJAU-20250120-35).” left out

BALB/c mice [7] = assay: 90-day oral safety: hematological parameters; type: in vivo; set-up: Red Cell Distribution Width—CV: unit not given here; conditions: 50 mg/kg/day oral, 90 days
Procedure: as §3

C[C@H](NC(=O)CNC(=O)[C@@H]1C[C@@H](O)CN1)C(=O)N[C@@H](CCCNC(=N)N)C(=O)O [Hyp-GAR, Hydroxyproline-Gly-Ala-Arg] (H-[Hyp]GAR-OH)
IC50 [1]: 12.2 µM

C[C@H](CS)C(=O)N1CCC[C@H]1C(=O)O [captopril]
NO levels in words (nitric oxide (NO)): significantly restored both eNOS and NO levels
eNOS levels in words [2]: significantly restored both eNOS and NO levels
AngII concentration (angiotensin II): 220.16 ± 31.67 pg/mL

C[C@H](NC(=O)CNC(=O)[C@@H]1C[C@@H](O)CN1C(=O)[C@H](C)NC(=O)CN)C(=O)N[C@@H](CCCNC(=N)N)C(=O)O [GA-Hyp-GAR, Gly-Ala-hydroxyproline-Gly-Ala-Arg] (H-GA[Hyp]GAR-OH)
IC50 [1]: 4 µM
serum biochemical markers of hepatic and renal function in words (BALB/c mice [3]; vs normal group): no significant differences (p > 0.05) between the treated and normal groups in markers of hepatic function
Triglycerides (BALB/c mice [3]; normal 1.94 ± 0.40, p 0.0526): 2.35 ± 0.48 mmol/L
Total Cholesterol (BALB/c mice [3]; normal 2.47 ± 0.23, p 0.1796): 2.32 ± 0.25 mmol/L
Aspartate Aminotransferase (BALB/c mice [3]; normal 2.48 ± 1.03, p 0.9294): 2.44 ± 0.96 µkat/L
Alkaline Phosphatase (BALB/c mice [3]; normal 3.32 ± 0.65, p 0.2065): 2.99 ± 0.46 µkat/L
Glucose (BALB/c mice [3]; normal 5.69 ± 3.38, p 0.1654): 7.79 ± 3.11 mmol/L
Blood Urea Nitrogen (BALB/c mice [3]; normal 7.81 ± 1.53, p 0.6237): 8.13 ± 1.33 mmol/L
Creatinine (BALB/c mice [3]; normal 14.70 ± 5.80, p 0.2390): 18.13 ± 6.76 µmol/L
Albumin (BALB/c mice [3]; normal 35.24 ± 1.32, p 0.5021): 35.60 ± 1.01 g/L
Total Protein (BALB/c mice [3]; normal 58.21 ± 3.77, p 0.9711): 58.16 ± 2.09 g/L
Alanine Aminotransferase (BALB/c mice [3]; normal 684.30 ± 288.39, p 0.8986): 701.81 ± 316.56 nkat/L
body weight (BALB/c mice [4]): Body weight increased steadily in all groups over the study period
mortality and signs of toxicity (BALB/c mice [4]): no mortality or signs of toxicity were observed
histopathology of major organs (BALB/c mice [5]): no observable pathological changes in any of the examined organs
organ coefficients (BALB/c mice [6]): organ coefficients did not differ significantly between the GA-Hyp-GAR-treated and normal groups (p > 0.05)
hematological parameters in words (BALB/c mice [7]; vs control): no statistically significant differences (p > 0.05) between the treated and control groups in key hematological parameters
Plateletcrit (BALB/c mice [7]; normal 0.16 ± 0.27, p >0.9999): 0.16 ± 0.26%
Mean Platelet Volume (BALB/c mice [7]; normal 2.05 ± 3.45, p 0.9798): 2.09 ± 3.52 fL
Platelet Distribution Width (BALB/c mice [7]; normal 2.91 ± 4.95, p 0.9364): 3.09 ± 5.00 fL
Platelet Large Cell Ratio (BALB/c mice [7]; normal 3.62 ± 6.29, p 0.9916): 3.65 ± 6.26%
White Blood Cells (BALB/c mice [7]; normal 4.28 ± 1.72, p 0.3610): 3.66 ± 1.19 ×10⁹/L
Red Blood Cells (BALB/c mice [7]; normal 10.71 ± 0.83, p 0.2451): 11.13 ± 0.73 ×10^12/L
Mean Corpuscular Hemoglobin (BALB/c mice [7]; normal 15.65 ± 0.32, p 0.7101): 15.70 ± 0.27 pg
Red Cell Distribution Width—CV (BALB/c mice [7]; normal 26.58 ± 1.94, p 0.4260): 25.95 ± 1.49
Red Cell Distribution Width—SD (BALB/c mice [7]; normal 32.81 ± 11.68, p 0.8517): 31.99 ± 7.11 fL
Hemoglobin (BALB/c mice [7]; normal 167.60 ± 13.10, p 0.1978): 174.70 ± 10.50 g/L
Mean Corpuscular Hemoglobin Concentration (BALB/c mice [7]; normal 341.80 ± 15.10, p 0.7101): 355.90 ± 5.50 g/L
Platelet Count (BALB/c mice [7]; normal 675.50 ± 200.50, p 0.9198): 683.40 ± 140.00 ×10⁹/L
